Results reported in patent publication US6114310A, “Efflux pump inhibitors” (priority 1998, dated 2000).

System: Pseudomonas aeruginosa PAM1001
Test: microbe, parasite or virus in culture
Assay type: cell-based
Method in brief: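 Checkerboard broth microdilution (NCCLS) with the efflux pump inhibitor and levofloxacin, each diluted along one axis of the plate, in Mueller Hinton Broth. Inoculum 5×10^5 CFU/ml from early-log culture; incubation 20 h at 35° C. Growth read at 650 nm and visually.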

[1] = Table 1, EPI Conc. μg/ml (number not given; column between 10 and 40 μg/ml)
[2] = Table 2, EPI Conc. μg/ml (number not given; column between 10 and 40 μg/ml)
[3] = Table 3, EPI Conc. μg/ml (number not given; column between 10 and 40 μg/ml)
[4] = Table 4, EPI Conc. μg/ml (number not given; column between 10 and 40 μg/ml)

| Substance | Levofloxacin MIC Against P. aeruginosa PAM1001 in Presence of Efflux Pump Inhibitor (EPI), Minimum Inhibitory Concentration (Table 1, EPI Conc. 0 μg/ml) | Levofloxacin MIC Against P. aeruginosa PAM1001 in Presence of Efflux Pump Inhibitor (EPI), Minimum Inhibitory Concentration (Table 1, EPI Conc. 0.625 μg/ml) | Levofloxacin MIC Against P. aeruginosa PAM1001 in Presence of Efflux Pump Inhibitor (EPI), Minimum Inhibitory Concentration (Table 1, EPI Conc. 5 μg/ml) | Levofloxacin MIC Against P. aeruginosa PAM1001 in Presence of Efflux Pump Inhibitor (EPI), Minimum Inhibitory Concentration (Table 1, EPI Conc. 10 μg/ml) | Levofloxacin MIC Against P. aeruginosa PAM1001 in Presence of Efflux Pump Inhibitor (EPI), Minimum Inhibitory Concentration (Table 1, EPI Conc. 40 μg/ml) | Levofloxacin MIC Against P. aeruginosa PAM1001 in Presence of Efflux Pump Inhibitor (EPI), Minimum Inhibitory Concentration [1] | Levofloxacin MIC Against P. aeruginosa PAM1001 in Presence of Efflux Pump Inhibitor (EPI), Minimum Inhibitory Concentration (Table 2, EPI Conc. 0 μg/ml) | Levofloxacin MIC Against P. aeruginosa PAM1001 in Presence of Efflux Pump Inhibitor (EPI), Minimum Inhibitory Concentration (Table 2, EPI Conc. 0.625 μg/ml) | Levofloxacin MIC Against P. aeruginosa PAM1001 in Presence of Efflux Pump Inhibitor (EPI), Minimum Inhibitory Concentration (Table 2, EPI Conc. 5 μg/ml) | Levofloxacin MIC Against P. aeruginosa PAM1001 in Presence of Efflux Pump Inhibitor (EPI), Minimum Inhibitory Concentration (Table 2, EPI Conc. 10 μg/ml) | Levofloxacin MIC Against P. aeruginosa PAM1001 in Presence of Efflux Pump Inhibitor (EPI), Minimum Inhibitory Concentration (Table 2, EPI Conc. 40 μg/ml) | Levofloxacin MIC Against P. aeruginosa PAM1001 in Presence of Efflux Pump Inhibitor (EPI), Minimum Inhibitory Concentration (Table 2, EPI Conc. […]) | Levofloxacin MIC Against P. aeruginosa PAM1001 in Presence of Efflux Pump Inhibitor (EPI), Minimum Inhibitory Concentration [2] | Levofloxacin MIC Against P. aeruginosa PAM1001 in Presence of Efflux Pump Inhibitor (EPI), Minimum Inhibitory Concentration (Table 3, EPI Conc. 0 μg/ml) | Levofloxacin MIC Against P. aeruginosa PAM1001 in Presence of Efflux Pump Inhibitor (EPI), Minimum Inhibitory Concentration (Table 3, EPI Conc. 0.625 μg/ml) | Levofloxacin MIC Against P. aeruginosa PAM1001 in Presence of Efflux Pump Inhibitor (EPI), Minimum Inhibitory Concentration (Table 3, EPI Conc. 5 μg/ml) | Levofloxacin MIC Against P. aeruginosa PAM1001 in Presence of Efflux Pump Inhibitor (EPI), Minimum Inhibitory Concentration (Table 3, EPI Conc. 10 μg/ml) | Levofloxacin MIC Against P. aeruginosa PAM1001 in Presence of Efflux Pump Inhibitor (EPI), Minimum Inhibitory Concentration [3] | Levofloxacin MIC Against P. aeruginosa PAM1001 in Presence of Efflux Pump Inhibitor (EPI), Minimum Inhibitory Concentration (Table 4, EPI Conc. 0 μg/ml) | Levofloxacin MIC Against P. aeruginosa PAM1001 in Presence of Efflux Pump Inhibitor (EPI), Minimum Inhibitory Concentration (Table 4, EPI Conc. 0.625 μg/ml) | also measured |
| --- | --- | --- | --- | --- | --- | --- | --- | --- | --- | --- | --- | --- | --- | --- | --- | --- | --- | --- | --- | --- | --- |
| D-Lysyl-β-N-(Ethylthioethyl)alanine 2-Naphthylamide Trifluoroacetate [Example 26] | 4 µg/mL | 4 µg/mL | 1 µg/mL | 0.125 µg/mL | 0.06 µg/mL | 0.125 µg/mL | 4 µg/mL | 4 µg/mL | 2 µg/mL | 0.125 µg/mL | 0.06 µg/mL | 4 µg/mL | 0.125 µg/mL | 4 µg/mL | 4 µg/mL | 0.06 µg/mL | 0.015 µg/mL | 0.03 µg/mL | 4 µg/mL | 4 µg/mL | Levofloxacin MIC Against P. aeruginosa PAM1001 in Presence of Efflux Pump Inhibitor (EPI), Minimum Inhibitory Concentration (Table 4, EPI Conc. 5 μg/ml): 1 µg/mL; Levofloxacin MIC Against P. aeruginosa PAM1001 in Presence of Efflux Pump Inhibitor (EPI), Minimum Inhibitory Concentration (Table 4, EPI Conc. 10 μg/ml): 0.25 µg/mL; Levofloxacin MIC Against P. aeruginosa PAM1001 in Presence of Efflux Pump Inhibitor (EPI), Minimum Inhibitory Concentration (Table 4, EPI Conc. 40 μg/ml): 0.03 µg/mL; Levofloxacin MIC Against P. aeruginosa PAM1001 in Presence of Efflux Pump Inhibitor (EPI), Minimum Inhibitory Concentration (Table 4, EPI Conc. […]): 4 µg/mL; Levofloxacin MIC Against P. aeruginosa PAM1001 in Presence of Efflux Pump Inhibitor (EPI), Minimum Inhibitory Concentration [4]: 0.125 µg/mL |
| D-Ornithyl-β-(N-4-methylphenethyl)alanine quinoline-3-amide [Compound 32 (Table 3)] | 4 µg/mL | 4 µg/mL | 1 µg/mL | 0.25 µg/mL | 0.25 µg/mL | 0.25 µg/mL | 4 µg/mL | 4 µg/mL | 2 µg/mL | 0.50 µg/mL | 0.06 µg/mL | 4 µg/mL | 0.50 µg/mL | 4 µg/mL | 4 µg/mL | 0.25 µg/mL | 0.06 µg/mL | 0.03 µg/mL | 4 µg/mL | 4 µg/mL | Levofloxacin MIC Against P. aeruginosa PAM1001 in Presence of Efflux Pump Inhibitor (EPI), Minimum Inhibitory Concentration (Table 3, EPI Conc. 40 μg/ml): 0.015 µg/mL; Levofloxacin MIC Against P. aeruginosa PAM1001 in Presence of Efflux Pump Inhibitor (EPI), Minimum Inhibitory Concentration (Table 4, EPI Conc. 5 μg/ml): 1 µg/mL; Levofloxacin MIC Against P. aeruginosa PAM1001 in Presence of Efflux Pump Inhibitor (EPI), Minimum Inhibitory Concentration (Table 4, EPI Conc. 10 μg/ml): 0.06 µg/mL; Levofloxacin MIC Against P. aeruginosa PAM1001 in Presence of Efflux Pump Inhibitor (EPI), Minimum Inhibitory Concentration (Table 4, EPI Conc. 40 μg/ml): 0.06 µg/mL; Levofloxacin MIC Against P. aeruginosa PAM1001 in Presence of Efflux Pump Inhibitor (EPI), Minimum Inhibitory Concentration [4]: 0.06 µg/mL |
